Tests used:
human TET2 construct = human TET2 construct (Homo sapiens, UniProt Q6N021, A1837G/A1840G/D1704G/D1842G/DEL1471-1702/DEL1708-1833/E1841G/F1706G/N1843S/Q1834G/V1836G); assay: Determination of TET2 binding by Surface Plasmon Resonance; details: SPR, Biacore T200, 25° C., steady state fit to single site interaction model
Description: The human methylcytosine dioxygenase TET2 construct used (1129-2002 with residues 1471-1843 replaced by a 15-residue GS-linker) was expressed in a pET-28a(+)psumo vector with kanamycin resistance and an N-terminal His6 tag, and cloned in Rosetta D3 Escherichia coli competent cells. Transformed cells were cultured overnight in 10 mL of LB media supplied with kanamycin (50 μg/mL), then scaled to 1 L LB medium supplied with kanamycin (50 μg/mL) and grown at 37° C. Once the optical density (OD600) achieved 0.8, protein expression was induced with 0.4 mM isopropyl-β-thiogalactopyranoside (IPTG) overnight at 18° C. Cells were harvested by centrifugation (8,000 rpm, 4° C., 30 min) and the pellet obtained was resuspended in 15 mL of buffer A (50 mM Hepes, 150 mM NaCl, 30 mM imidazole, 2 mM β-mercaptoethanol (pH 8.0) supplemented with Pierce protease inhibitor cocktail (ThermoFisher Scientific)) and lysed by sonication (1 min 40 s: 10 cycles×10 s ON, 30 s OFF, A=35%, T=19° C.) followed by two consecutive centrifugations (8,000 rpm, 4° C., 30 min) to clarify the lysate.
The TET2 protein was purified using an AKTA Start system (GE Healthcare, Uppsala, Sweden) by two-step purification procedure: one His-affinity chromatography followed by a size exclusion chromatography. First, the protein fraction obtained during the lysis (supernatant) was applied to a 5 mL HisTrap HP column (GE Healthcare), washed with buffer A (50 mM Hepes, 150 mM NaCl, 30 mM imidazole, 2 mM […] (pH 8.0)) and the bound protein was eluted with buffer B (50 mM Hepes, 150 mM NaCl, 250 mM imidazole, 2 mM β-mercaptoethanol (pH 8.0)). The eluted protein-containing fractions were pooled and concentrated up to 4 mL for the last purification step: a size exclusion chromatography (HiPrep 16/60 Sephacryl S-100 HR) in 50 mM Hepes, 150 mM NaCl, 2 mM β-mercaptoethanol (pH 8.0). Finally, the mass and purity of the protein were verified by SDS-electrophoresis and mass spectrometry.
The binding of compounds of the examples was determined by Surface Plasmon Resonance (SPR) using a Biacore T200 SPR biosensor instrument (GE Healthcare, Uppsala, Sweden) at 25° C. The human TET2 construct was immobilized on a CM5 sensor chip using a standard covalent immobilization via amine coupling following the activation of the carboxymethyl dextran matrix of the sensor chip (injection of a solution containing 0.1 M N-hydroxysuccinimide and 0.4 M 1-ethyl-3-[3-(dimethylamino)propyl]carbodiimide hydrochloride at a flow rate of 15 μL/min for 7 min). The protein immobilization was achieved after the injection of 5 μg/mL TET2 in 10 mM sodium acetate (pH 4.0) at a flow rate of 5 μL/min. Unreacted activated groups of the dextran matrix were deactivated by injection of 1 M ethanolamine hydrochloride for 7 min at a flow rate of 15 μL/min. The corresponding matrix activation and protein immobilization were performed using as a running buffer a phosphate buffered saline solution (1.05× PBS: 10 mM phosphate, pH 7.4, 150 mM NaCl). The screened compounds were prepared in a 20 mM stock solution in DMSO and diluted with 1.05× PBS to achieve a final 5% (v/v) DMSO concentration. The running buffer of the interaction assays consisted of 1×PBS, 5% (v/v) DMSO. The flow rate used for the screening was 60 μL/min and the ligand association and dissociation times set were 60 s and 120 s, respectively.
For data analysis the software used was the Biacore T200 Evaluation software. Different corrections were applied. First, the nonspecific binding to the chip surface and the baseline drift were corrected subtracting the signals of a reference surface (where the immobilization procedure was carried out without proteins) to the signals obtained on the TET2 surface. Second, a series of solvent standards (solvent correction) were introduced to remove the differences derived from the DMSO. Finally, the background was corrected subtracting blank injections (blank subtraction) to the injected compound signals.

A375 (melanoma) = assay: Antiproliferative activity on other tumour cell lines (CellTiter-Glo): A375; format: cell-based; details: Homo sapiens, A-375; A375, 72 h of treatment
Description: (§1) Other human adherent cancer cell lines were cultured in their corresponding cell medium (as specified in Table 4) supplemented with 10% FBS (v/v) and 1% P/S (v/v). Twenty-four hours prior to treatment with the compounds to be tested (Examples 1, 12 and 21), the cells were seeded in 96-well plates at different densities depending of the cell line (as specified in Table 4).
(§2) Depending on the cell line, a 50, 125 or 250 μM solution of the compounds of examples 1, 12 and 21 were prepared in complete medium, and then serially diluted (1:2) (Table 5). A solution of complete medium with DMSO was used as a vehicle control.
(§3) Fifty microliters of each serially diluted compound solution was added by medium replacement in two wells (by duplicate). After 48 h of treatment, 50 μL of fresh 2X serially diluted compound solution was added to the corresponding wells of the plate (100 μL of final volume/well). After twenty-four additional hours (a total of 72 h of treatment), an equal volume (100 μL) of CellTiter-Glo Reagent (Promega) was added to each well, plates were shaken during 2 min and incubated at rt for 10 min. Luminescence was recorded using a Spark multimode microplate reader and an integration time of 1 s per well.

MCF7 (breast) = assay: Antiproliferative activity on other tumour cell lines (CellTiter-Glo): MCF7; format: cell-based; details: Homo sapiens; MCF7, 72 h of treatment
Description: as §1, §2, §3

T98G (glioblastoma) = assay: Antiproliferative activity on other tumour cell lines (CellTiter-Glo): T98G; format: cell-based; details: Homo sapiens, 72 h of treatment
Description: as §1, §2, §3

MDA-MB-468 (breast) = assay: Antiproliferative activity on other tumour cell lines (CellTiter-Glo): MDA-MB-468; format: cell-based; details: Homo sapiens, MD-MB-468, 72 h of treatment
Description: as §1, §2, §3

Hop62 (lung) = assay: Antiproliferative activity on other tumour cell lines (CellTiter-Glo): Hop62; format: cell-based; details: Homo sapiens, HOP-62; Hop62, 72 h of treatment
Description: as §1, §2, §3

LN229 (glioblastoma) = assay: Antiproliferative activity on other tumour cell lines (CellTiter-Glo): LN229; format: cell-based; details: Homo sapiens, LN-229; LN229, 72 h of treatment
Description: as §1, §2, §3

HCT116 (colon) = assay: Antiproliferative activity on other tumour cell lines (CellTiter-Glo): HCT116; format: cell-based; details: Homo sapiens; HCT 116, 72 h of treatment
Description: as §1, §2, §3

Kd (human TET2 construct) [µM]	EC50 (A375 (melanoma)) [µM]	EC50 (MCF7 (breast)) [µM]	EC50 (T98G (glioblastoma)) [µM]	EC50 (MDA-MB-468 (breast)) [µM]	EC50 (Hop62 (lung)) [µM]	EC50 (LN229 (glioblastoma)) [µM]	EC50 (HCT116 (colon)) [µM]	Structure (SMILES)
6	2.7	10.3	23.1	10.1	12.1	5.9	6.8	Cc1[nH]c2ccccc2c1-c1csc(NC(=O)Cc2c[nH]c3ccc(F)cc23)n1 [Example 12, 2-(5-fluoro-1H-indol-3-yl)-N-[4-(2-methyl-1H-indol-3-yl)thiazol-2-yl]acetamide]
1	–	–	–	–	–	–	–	Cc1[nH]c2ccccc2c1-c1csc(NC(=O)Cc2cc(Br)cs2)n1 [Example 19, 2-(4-bromothiophen-2-yl)-N-[4-(2-methyl-1H-indol-3-yl)thiazol-2-yl]acetamide]

The next lines start with the molecule.

Structure (SMILES)	Kd (human TET2 construct) [µM]	EC50 (A375 (melanoma)) [µM]	EC50 (MCF7 (breast)) [µM]	EC50 (T98G (glioblastoma)) [µM]	EC50 (MDA-MB-468 (breast)) [µM]	EC50 (Hop62 (lung)) [µM]	EC50 (LN229 (glioblastoma)) [µM]	EC50 (HCT116 (colon)) [µM]
Cc1[nH]c2ccccc2c1-c1csc(NC(=O)Cc2c[nH]c3ccccc23)n1 [Example 13, 2-(1H-indol-3-yl)-N-[4-(2-methyl-1H-indol-3-yl)thiazol-2-yl]acetamide]	14	–	–	–	–	–	–	–
Cc1[nH]c2ccccc2c1-c1csc(NC(=O)Cc2c[nH]c3ccc(O)cc23)n1 [Example 21, 2-(5-hydroxy-1H-indol-3-yl)-N-[4-(2-methyl-1H-indol-3-yl)thiazol-2-yl]acetamide]	7	1.1	12.9	11.4	9.2	81.6	3.3	16.4
Cc1[nH]c2ccccc2c1-c1nc(NC(=O)Cc2cn3ccsc3n2)sc1C [Example 4, 2-(imidazo[2,1-b]thiazol-6-yl)-N-[5-methyl-4-(2-methyl-1H-indol-3-yl)thiazol-2-yl]acetamide]	12	–	–	–	–	–	–	–

From patent publication US20240208998A1, “COMPOUNDS FOR USE IN THE TREATMENT OF HYPERPROLIFERATIVE DISORDERS” (FUNDACIÓ PRIVADA INSTITUT D'INVESTIGACIÓ ONCOLÓGICA DE VALL …, priority 2021, published 2024)
